Measured values from PubChem BioAssay AID1963444 (Molecular Pharmacology Branch, DTP, NCI, 2024).

System: HSSY-II complex spheroid growth, percent test/control
Experiment: Anticancer human tumor HSSY-II cell line growth inhibition [Asc];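 further: spheroids exposed to drug for 7 days before reading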
Details: for IC50: curve of first compound; for viability, T/C: stronger effect = lower value
Description: Multicellular complex tumor spheroid response to apoptosis pathway targeting inhibitors Alrizomadlin, Pelcitoclax, and Dasminapant in combination with a variety of drugs and investigational agents in selected tumor cell lines
The MDM2 inhibitor alrizomadlin, the Bcl-2/Bcl-xL inhibitor pelcitoclax, and the IAPs inhibitor dasminapant were evaluated both individually and in combination with standard of care and investigational anticancer small molecules within a complex spheroid model of solid tumors. . Complex spheroids include a stromal component modeled by human endothelial cells (HUVEC) and fibroblasts modeled by human mesenchymal stem cells (MSCs). The concentration ranges selected for each drug and investigational agent were based upon clinically achievable concentrations if the clinical Cmax of the agent was known.
Compounds. The drugs and investigational agents: alrizomadlin (APG-115; NSC831270), pelcitoclax (APG-1252; NSC835773), dasminapant (APG-1387;NSC834197), TAK-243 (NSC785004), copanlisib (NSC809693), olaparib (NSC753686), talazoparib (NSC767125), cobimetinib (NSC 768068), eltanexor (KPT-8602, NSC 794443), abemaciclib (NSC 768073), sotorasib (NSC818433), adagrasib (NSC 831453), MRTX-1133 (NSC 836407), Iadademestat (ORY1001, NSC 806812), and RMC-4630 (NSC839698), were obtained from the NCI Developmental Therapeutics Program Chemical Repository. The FDA-approved anticancer drug set is available from the Developmental Therapeutics Program at https://dtp.cancer.gov/organization/dscb/obtaining/available plates.htm. […] The stock solutions were prepared in dimethyl sulfoxide (DMSO, Sigma-Aldrich, St. Louis, MO, cat. D2650) at 800-fold the tested concentration and stored at -70 degrees C prior to their use. All drugs and investigational agents were tested over a range starting from a high concentration at or near the clinical Cmax and decreasing in half-log increments. If the clinical Cmax for an agent had not been determined, the highest concentration tested was 10 microM.
The patient-derived cancer (PDC) cell lines include five colon adenocarcinomas: 186277-243-T-J2-PDC, 616215-338-R-J1-PDC, 439559-082-T-J2-PDC, 463943-066-T-J2-PDC, and 519858-162-T-J1-PDC; three pancreatic carcinomas: 323965-272-R-J2-PDC, 521955-158-R6-J3-PDC, and 521955-158-R2-J5-PDC; two uterine sarcomas: 327498-152-R-J2-PDC and 993429-296-R-J1-PDC; two rhabdomyosarcomas: 755483-174-R-J1-PDC and 772245-204-R-J1-PDC; two soft tissue sarcomas: 126254-015-R-J1-PDC and 494315-158-R-J1-PDC; two malignant fibrous histiocytomas: 317291-083-R-J1-PDC and 596521-263-R-J1-PDC; two breast carcinomas: 171881-019-R-J1-PDC and 885512-296-R-J2-PDC; and one ovarian carcinoma: 6556581-035-R-J-PDC were obtained from the NCI PDMR, (https://pdmr.cancer.gov). The established cell lines HSSY-2 synovial sarcoma (RRID:CVCL 8719), SYO-1 synovial sarcoma (RRID:CVCL_7146), MPNST malignant peripheral neural sheath tumor were obtained from the Sloan Kettering Institute. The following established cell lines were purchased from the American Type Culture Collection (ATCC, Manassas, VA), Sor the received from the NCI repository:, PANC-1 pancreatic carcinoma (CRL-1469, RRID:CVCL_0480), OVCAR-5 ovarian carcinoma (RRID:CVCL_1628), OVCAR-8 ovarian carcinoma (RRID:CVCL_1629), , MCF-7 breast carcinoma (CRL-12584, RRID:CVCL_0031), MDA-MB-231 breast carcinoma (CRL-12532, RRID:CVCL_0062), NCI-H1876 small cell lung carcinoma (CRL-5902, RRID:CVCL_1503), NCI-H510A small cell lung carcinoma (HTB-184, RRID:CVCL_1565), NCI-H1417 (CRL-5869, RRID:CVCL_1469), and NCI-H196 small cell lung carcinoma (CRL-5823, RRID:CVCL_1509). Dr. Peter Houghton (Greehey Children's Cancer Research Institute, University of Texas Health Science Center, San Antonio, TX) provided Rh-18 rhabdomyosarcoma (RRID:CVCL_1659). Pooled donor human umbilical vein endothelial cells (HUVEC, Lonza, cat. CC-2519) and human mesenchymal stem cells (hMSC, Lonza, cat. PT-2501) were purchased from Lonza (Walkersville, MD).
Cell Culture. […]

[1] = second compound 0.03 µM, first compound 0.00316 µM
[2] = second compound 0.03 µM, first compound 0.01 µM
[3] = second compound 0.03 µM, first compound 0.0316 µM
[4] = second compound 0.03 µM, first compound 0.1 µM
[5] = second compound 0.0949 µM, first compound 0.00316 µM
[6] = second compound 0.0949 µM, first compound 0.01 µM
[7] = second compound 0.0949 µM, first compound 0.0316 µM
[8] = second compound 0.0949 µM, first compound 0.1 µM
[9] = second compound 0.3 µM, first compound 0.00316 µM
[10] = second compound 0.3 µM, first compound 0.01 µM
[11] = second compound 0.3 µM, first compound 0.0316 µM
[12] = second compound 0.3 µM, first compound 0.1 µM
[13] = second compound 0.949 µM, first compound 0.00316 µM
[14] = second compound 0.949 µM, first compound 0.01 µM
[15] = second compound 0.949 µM, first compound 0.0316 µM
[16] = second compound 0.949 µM, first compound 0.1 µM
[17] = second compound 3 µM, first compound 0.00316 µM
[18] = second compound 3 µM, first compound 0.01 µM
[19] = second compound 3 µM, first compound 0.0316 µM
[20] = second compound 3 µM, first compound 0.1 µM
[21] = second compound 0.03 µM, first compound 0.316 µM
[22] = second compound 0.03 µM, first compound 1 µM
[23] = second compound 0.0949 µM, first compound 0.316 µM
[24] = second compound 0.0949 µM, first compound 1 µM
[25] = second compound 0.3 µM, first compound 0.316 µM
[26] = second compound 0.3 µM, first compound 1 µM
[27] = second compound 0.949 µM, first compound 0.316 µM
[28] = second compound 0.949 µM, first compound 1 µM
[29] = second compound 3 µM, first compound 0.316 µM
[30] = second compound 3 µM, first compound 1 µM

Compound	IC50 (second compound 0.03 µM) [nM]	IC50 (second compound 0.0949 µM) [nM]	IC50 (second compound 0.3 µM) [nM]	IC50 (second compound 0.949 µM) [nM]	IC50 (second compound 3 µM) [nM]	viability, T/C [1] [%]	viability, T/C [2] [%]	viability, T/C [3] [%]	viability, T/C [4] [%]	viability, T/C [5] [%]	viability, T/C [6] [%]	viability, T/C [7] [%]	viability, T/C [8] [%]	viability, T/C [9] [%]	viability, T/C [11] [%]	viability, T/C [12] [%]	viability, T/C [15] [%]	viability, T/C [16] [%]	viability, T/C [19] [%]	viability, T/C [20] [%]	also measured
Cn1ncnc1[C@H]1c2n[nH]c(=O)c3cc(F)cc(c23)N[C@@H]1c1ccc(F)cc1 + CCN1C(C(=O)NC23CCC(C(=O)O)(CC2)CC3)C(c2cccc(Cl)c2F)C2(C(=O)Nc3cc(Cl)ccc32)C12CCCCC2	10.7	2.01	< 0.316	< 0.316	< 0.316	68.1	52.8	31.4	19.6	47.1	31	15.4	10.2	18.2	6.69	5.88	6.11	6.09	1.88	4.41	viability, T/C (second compound 0.03 µM, first compound 0.000316 µM): 91.9%; viability, T/C (second compound 0.03 µM, first compound 0.001 µM): 89.6%; viability, T/C (second compound 0.0949 µM, first compound 0.000316 µM): 61.4%; viability, T/C (second compound 0.0949 µM, first compound 0.001 µM): 53.6%; viability, T/C (second compound 0.3 µM, first compound 0.000316 µM): 28.5%; viability, T/C (second compound 0.3 µM, first compound 0.001 µM): 28.6%; viability, T/C [10]: 10.4%; viability, T/C (second compound 0.949 µM, first compound 0.000316 µM): 8.57%; viability, T/C (second compound 0.949 µM, first compound 0.001 µM): 7.9%; viability, T/C [13]: 7.26%; viability, T/C [14]: 5.4%; viability, T/C (second compound 3 µM, first compound 0.000316 µM): 2.41%; viability, T/C (second compound 3 µM, first compound 0.001 µM): 2.9%; viability, T/C [17]: 4.02%; viability, T/C [18]: 2.59%
O=C(c1cc(Cc2n[nH]c(=O)c3ccccc23)ccc1F)N1CCN(C(=O)C2CC2)CC1 + CCN1C(C(=O)NC23CCC(C(=O)O)(CC2)CC3)C(c2cccc(Cl)c2F)C2(C(=O)Nc3cc(Cl)ccc32)C12CCCCC2	1760	196	< 31.6	< 31.6	< 31.6	–	–	81.5	75.1	–	–	52.9	52.4	–	23.5	20.9	6.91	7.91	3.25	2.79	viability, T/C [21]: 84.5%; viability, T/C [22]: 63.6%; viability, T/C (second compound 0.03 µM, first compound 3.16 µM): 34.5%; viability, T/C (second compound 0.03 µM, first compound 10 µM): 14.1%; viability, T/C [23]: 47.2%; viability, T/C [24]: 38.5%; viability, T/C (second compound 0.0949 µM, first compound 3.16 µM): 18.7%; viability, T/C (second compound 0.0949 µM, first compound 10 µM): 9.39%; viability, T/C [25]: 18.3%; viability, T/C [26]: 15.5%; viability, T/C (second compound 0.3 µM, first compound 3.16 µM): 9.8%; viability, T/C (second compound 0.3 µM, first compound 10 µM): 6.14%; viability, T/C [27]: 6.69%; viability, T/C [28]: 7.17%; viability, T/C (second compound 0.949 µM, first compound 3.16 µM): 6.79%; viability, T/C (second compound 0.949 µM, first compound 10 µM): 5.66%; viability, T/C [29]: 3.26%; viability, T/C [30]: 2.73%; viability, T/C (second compound 3 µM, first compound 3.16 µM): 2.56%; viability, T/C (second compound 3 µM, first compound 10 µM): 3.28%
O=C(c1ccc(F)c(F)c1Nc1ccc(I)cc1F)N1CC(O)([C@@H]2CCCCN2)C1 + CCN1C(C(=O)NC23CCC(C(=O)O)(CC2)CC3)C(c2cccc(Cl)c2F)C2(C(=O)Nc3cc(Cl)ccc32)C12CCCCC2	485	186	< 3.16	< 3.16	< 3.16	101	96.6	77.7	98.5	66.7	70.8	67.9	59.9	30.3	34.2	28.1	7.24	6.73	2.09	2.02	viability, T/C [21]: 66.7%; viability, T/C [22]: 21.7%; viability, T/C [23]: 41.2%; viability, T/C [24]: 15.8%; viability, T/C [10]: 25.7%; viability, T/C [25]: 24.2%; viability, T/C [26]: 7.55%; viability, T/C [13]: 6.94%; viability, T/C [14]: 9.74%; viability, T/C [27]: 5.75%; viability, T/C [28]: 2.34%; viability, T/C [17]: 2.22%; viability, T/C [18]: 2.17%; viability, T/C [29]: 1.16%; viability, T/C [30]: 0.62%
